This data set in a line: MTT assay of viability and metabolic activity of ex vivo human skin explants after topical application. Type of data set: cell-based. The conditions noted are these: ex vivo human skin explants (5 mm); ex vivo human skin 5 mm explants, 48 hours post treatment, 37° C., compared to the untreated skin control, n=3. As for the experimental part:
Sample 1 was tested to determine its toxicity and metabolic properties in comparison to a control and three commercial cleaning agents (irritants)— “SDS” (sodium dodecyl sulfate), Triton™ X-100, and Tween® 20. Human skin was obtained via post-surgical elective surgery under IRB protocol and prepared within 2 hours of surgery as 5 mm explants. The compositions were applied to the surface of the epidermis and incubated for 24 hours and 48 hours at 37° C. At each time point, explants were assessed for viability and metabolic activity via a MTT assay (n=3; mean+/−SEM), a colorimetric assay for assessing cell metabolic activity. […] The metabolic activity (viability) of tissues treated with Sample 1 remained above 50% at 48 hours post treatment compared to the untreated skin control, while those treated with Trition ° X-100 and SDS were <10% and are illustrated in the graph below that plots percent viability and time.

`CCCCCCCCCCCCOS(=O)(=O)[O-].[Na+]` [SDS, sodium dodecyl sulfate] had a viability at 48 h of under 10%.

Values taken from US20240148762A1, “TOPICAL COMPOSITION CONTAINING CANNABINOIDS” (TF Holdings LLC, priority 2022, published 2024).
